# Laboratory results as given in ChEMBL document CHEMBL1201862, “PubChem BioAssay data set” (2004).
# Calls of active or inactive are those of the source.
# Columns and labels:
# [1] = biological target: Mothers against decapentaplegic homolog 3 (Homo sapiens, UniProt P84022); test: inhibitors of SMAD-driven TGF-beta signaling – dose response (AID 715); type: functional
# [2] = biological target: Epstein-Barr nuclear antigen 1 (Epstein-Barr virus (strain B95-8) (HHV-4) (Human herpesvirus 4), UniProt P03211); test: inhibition of EBV nuclear antigen 1 DNA binding – biochemical, fluorescence polarization, 1536-well, dose response (AID 2381); set-up: species or system human gammaherpesvirus 4;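 also: fluorescence polarization of a Cy5 DNA probe bound by EBNA-1 protein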
# Chain of Epstein-Barr nuclear antigen 1 (P03211 whole entry): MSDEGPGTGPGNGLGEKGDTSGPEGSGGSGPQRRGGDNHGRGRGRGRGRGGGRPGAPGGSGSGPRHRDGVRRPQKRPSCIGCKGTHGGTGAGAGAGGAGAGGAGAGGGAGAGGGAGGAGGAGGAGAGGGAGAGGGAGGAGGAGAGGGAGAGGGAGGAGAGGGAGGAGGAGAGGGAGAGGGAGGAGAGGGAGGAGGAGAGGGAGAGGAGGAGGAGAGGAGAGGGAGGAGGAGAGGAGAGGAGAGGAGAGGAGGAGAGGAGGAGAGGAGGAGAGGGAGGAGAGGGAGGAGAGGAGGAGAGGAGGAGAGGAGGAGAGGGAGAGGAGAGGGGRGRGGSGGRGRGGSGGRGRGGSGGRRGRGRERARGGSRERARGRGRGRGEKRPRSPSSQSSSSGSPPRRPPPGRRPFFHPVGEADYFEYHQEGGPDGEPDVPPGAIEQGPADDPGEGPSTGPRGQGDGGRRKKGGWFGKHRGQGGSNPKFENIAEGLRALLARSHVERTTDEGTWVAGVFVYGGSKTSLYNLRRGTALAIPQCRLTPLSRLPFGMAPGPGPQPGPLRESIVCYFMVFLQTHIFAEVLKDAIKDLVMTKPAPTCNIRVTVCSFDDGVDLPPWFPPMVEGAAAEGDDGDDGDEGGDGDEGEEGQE
# [3] = biological target: Lytic switch protein BZLF1 (Epstein-Barr virus (strain B95-8) (HHV-4) (Human herpesvirus 4), UniProt P03206); test: inhibition of BZLF1 ZTA DNA binding – biochemical, fluorescence polarization, Epstein-Barr virus, 1536-well, counter-screen for EBNA-1 inhibitor project, dose response (AID 2377); set-up: species or system human gammaherpesvirus 4;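 also: fluorescence polarization of Cy5-labelled ZRE DNA probe bound by purified Zta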
# Chain of Lytic switch protein BZLF1 (P03206 whole entry): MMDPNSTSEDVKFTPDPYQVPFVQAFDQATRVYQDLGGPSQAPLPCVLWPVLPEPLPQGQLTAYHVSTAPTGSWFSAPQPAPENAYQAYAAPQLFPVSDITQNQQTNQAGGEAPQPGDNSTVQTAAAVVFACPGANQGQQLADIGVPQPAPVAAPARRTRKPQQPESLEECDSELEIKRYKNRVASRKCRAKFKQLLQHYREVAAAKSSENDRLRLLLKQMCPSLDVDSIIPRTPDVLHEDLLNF
# [4] = biological target: Cytochrome P450 2C9 (Homo sapiens, UniProt P11712)
# [5] = biological target: Cytochrome P450 2D6 (Homo sapiens, UniProt P10635);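 also: CYP2D6 member of a cytochrome P450 panel assay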
# [6] = biological target: Sphingosine 1-phosphate receptor 2 (Homo sapiens, UniProt O95136); test: Dose Response Cell Based Assay for Agonists of the S1P2 Receptor of Purchased Analogues. [Related pubchem assays: 729, 843, 854, 736 ]; type: functional
# [7] = biological target: T1, Bcl-2-related protein A1 (Mus musculus, UniProt Q07440); test: displacement of Bid BH3 peptide from Bfl-1 – biochemical, fluorescence polarization, FITC-Bid, mouse, primary screen (AID 432)
# T1 sequence (Q07440 whole entry): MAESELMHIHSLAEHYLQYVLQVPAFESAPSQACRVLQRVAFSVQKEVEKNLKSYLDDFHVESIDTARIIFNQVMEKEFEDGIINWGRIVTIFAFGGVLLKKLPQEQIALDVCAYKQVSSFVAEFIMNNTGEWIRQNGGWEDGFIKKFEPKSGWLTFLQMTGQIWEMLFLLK
# [8] = biological target: T1, Bcl-2-related protein A1; test: small-molecule antagonists of Bfl-1/BH3 interaction – biochemical, TR-FRET, mouse Bfl-1, confirmation (AID 621);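 also: TR-FRET binding of GST-Bfl-1 to FITC-labelled Bid peptide via terbium antibody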
# [9] = Luminescence Cell-Based Dose Response to Identify Activators of 5'UTR Stem-Loop Driven Prion Protein mRNA Translation in H4-C Neuroglioblastoma Cells. [Related pubchem assays: 1829 (Project Summary), 1814 (Primary HTS)]; type: functional
# [10] = Luminescence Cell-Based Dose Confirmation HTS to Identify Activators of 5'UTR Stem-Loop Driven Alpha-Synuclein mRNA Translation in H4 Neuroglioblastoma Cells. [Related pubchem assays: 1829 (Project Summary), 1814 (Primary HTS)]; type: functional
# [11] = Luminescence Cell-Based Dose Response HTS to Identify Activators of Luciferase Translation or Activity in H4 […] Cells. [Related pubchem assays: 1829 (Project Summary), 1814 (Primary HTS)]; type: functional
# [12] = system: H4; test: Luminescence Cell-Based Dose Response HTS to Identify Activators of 5'UTR Stem-Loop Driven Prion Protein mRNA Translation in H4 Neuroglioblastoma Cells. [Related pubchem assays: 1829 (Project Summary), 1814 (Primary HTS)]; type: functional; conditions: Homo sapiens
# [13] = Luminescence Cell-Based Dose Response to Identify Activators of Luciferase Translation or Activity in H4-C Neuroglioblastoma Cells. [Related pubchem assays: 1829 (Project Summary), 1814 (Primary HTS)]; type: functional
# [14] = Luminescence Cell-Based Dose Confirmation to Identify Activators of 5'UTR Stem-Loop Driven Alpha-Synuclein mRNA Translation in H4 Neuroglioblastoma Cells. [Related pubchem assays: 1829 (Project Summary), 1814 (Primary HTS)]; type: functional
# [15] = biological target: Serine/threonine-protein phosphatase PP1-alpha catalytic subunit (Homo sapiens, UniProt P62136); test: inhibition of protein phosphatase 1 activity – biochemical, fluorescence, dose response (AID 2394)
# Chain of Serine/threonine-protein phosphatase PP1-alpha catalytic subunit (P62136 whole entry): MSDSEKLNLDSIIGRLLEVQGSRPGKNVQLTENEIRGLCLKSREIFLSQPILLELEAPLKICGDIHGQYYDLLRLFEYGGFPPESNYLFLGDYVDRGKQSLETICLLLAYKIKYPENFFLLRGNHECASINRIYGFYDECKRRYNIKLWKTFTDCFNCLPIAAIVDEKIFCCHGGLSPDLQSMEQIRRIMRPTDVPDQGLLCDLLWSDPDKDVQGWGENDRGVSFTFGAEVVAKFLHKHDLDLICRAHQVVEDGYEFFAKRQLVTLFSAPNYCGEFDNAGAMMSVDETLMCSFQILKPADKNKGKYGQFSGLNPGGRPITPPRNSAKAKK
# [16] = biological target: T2, SUMO-activating enzyme (Homo sapiens, UniProt Q9UBT2); test: blockers of UBC9-mediated SUMO conjugation – biochemical, AlphaScreen, SUMOylation inhibitor project, confirmation (AID 2018); type: functional
# T2 sequence (Q9UBE0 whole entry): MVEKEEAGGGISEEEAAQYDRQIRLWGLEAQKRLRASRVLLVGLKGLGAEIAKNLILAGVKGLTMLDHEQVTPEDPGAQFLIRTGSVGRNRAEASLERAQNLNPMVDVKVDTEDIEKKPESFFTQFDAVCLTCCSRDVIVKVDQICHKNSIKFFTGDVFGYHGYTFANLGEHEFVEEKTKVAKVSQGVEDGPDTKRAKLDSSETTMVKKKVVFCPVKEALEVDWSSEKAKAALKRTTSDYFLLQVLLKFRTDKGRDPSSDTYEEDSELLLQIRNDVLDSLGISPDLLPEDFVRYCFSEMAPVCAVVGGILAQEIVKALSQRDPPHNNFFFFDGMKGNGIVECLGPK
# T2 sequence (Q9UBT2 whole entry): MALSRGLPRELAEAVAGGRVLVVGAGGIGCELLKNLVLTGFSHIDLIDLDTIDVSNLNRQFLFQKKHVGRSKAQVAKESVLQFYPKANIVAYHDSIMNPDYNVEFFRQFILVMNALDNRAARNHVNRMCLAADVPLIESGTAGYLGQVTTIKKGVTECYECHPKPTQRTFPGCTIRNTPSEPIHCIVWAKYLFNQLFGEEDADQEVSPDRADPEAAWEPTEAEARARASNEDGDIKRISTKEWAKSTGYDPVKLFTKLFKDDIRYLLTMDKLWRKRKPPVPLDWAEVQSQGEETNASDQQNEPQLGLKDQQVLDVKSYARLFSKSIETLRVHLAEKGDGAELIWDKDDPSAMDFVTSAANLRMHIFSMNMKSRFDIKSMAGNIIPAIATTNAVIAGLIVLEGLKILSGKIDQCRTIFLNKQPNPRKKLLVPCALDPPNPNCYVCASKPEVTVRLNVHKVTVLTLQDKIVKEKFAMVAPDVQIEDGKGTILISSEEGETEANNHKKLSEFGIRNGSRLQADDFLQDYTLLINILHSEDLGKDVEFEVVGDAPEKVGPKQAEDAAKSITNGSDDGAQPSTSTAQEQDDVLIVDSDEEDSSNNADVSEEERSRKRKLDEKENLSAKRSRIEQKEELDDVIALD
# [17] = biological target: T2, SUMO-activating enzyme; test: blockers of SAE1/SAE2–UBC9 SUMO transfer – biochemical, HTRF, uHTS, primary screen (AID 2006); type: protein-complex assay
# [18] = biological target: T3, Serine/threonine-protein phosphatase (Homo sapiens, UniProt Q9BPW0); test: inhibition of protein phosphatase 5 activity – biochemical, fluorescence, dose response (AID 2395)
# T3 sequence (Q9BPW0 whole entry): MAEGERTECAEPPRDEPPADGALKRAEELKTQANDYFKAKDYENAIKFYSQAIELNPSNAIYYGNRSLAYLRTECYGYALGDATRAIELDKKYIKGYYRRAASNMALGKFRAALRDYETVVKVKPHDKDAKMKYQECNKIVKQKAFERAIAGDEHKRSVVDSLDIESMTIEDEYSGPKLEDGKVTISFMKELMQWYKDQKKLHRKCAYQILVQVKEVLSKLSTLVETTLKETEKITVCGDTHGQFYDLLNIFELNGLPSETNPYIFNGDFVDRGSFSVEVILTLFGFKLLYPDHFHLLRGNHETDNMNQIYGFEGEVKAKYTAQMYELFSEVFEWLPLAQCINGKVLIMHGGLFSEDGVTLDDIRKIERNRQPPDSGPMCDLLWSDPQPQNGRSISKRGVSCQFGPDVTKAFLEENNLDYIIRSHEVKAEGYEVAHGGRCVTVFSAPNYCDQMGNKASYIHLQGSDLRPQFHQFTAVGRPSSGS
# [19] = biological target: T4, Apoptotic protease-activating factor 1 (Homo sapiens, UniProt O14727); type: functional
# T4 sequence (O14727 whole entry): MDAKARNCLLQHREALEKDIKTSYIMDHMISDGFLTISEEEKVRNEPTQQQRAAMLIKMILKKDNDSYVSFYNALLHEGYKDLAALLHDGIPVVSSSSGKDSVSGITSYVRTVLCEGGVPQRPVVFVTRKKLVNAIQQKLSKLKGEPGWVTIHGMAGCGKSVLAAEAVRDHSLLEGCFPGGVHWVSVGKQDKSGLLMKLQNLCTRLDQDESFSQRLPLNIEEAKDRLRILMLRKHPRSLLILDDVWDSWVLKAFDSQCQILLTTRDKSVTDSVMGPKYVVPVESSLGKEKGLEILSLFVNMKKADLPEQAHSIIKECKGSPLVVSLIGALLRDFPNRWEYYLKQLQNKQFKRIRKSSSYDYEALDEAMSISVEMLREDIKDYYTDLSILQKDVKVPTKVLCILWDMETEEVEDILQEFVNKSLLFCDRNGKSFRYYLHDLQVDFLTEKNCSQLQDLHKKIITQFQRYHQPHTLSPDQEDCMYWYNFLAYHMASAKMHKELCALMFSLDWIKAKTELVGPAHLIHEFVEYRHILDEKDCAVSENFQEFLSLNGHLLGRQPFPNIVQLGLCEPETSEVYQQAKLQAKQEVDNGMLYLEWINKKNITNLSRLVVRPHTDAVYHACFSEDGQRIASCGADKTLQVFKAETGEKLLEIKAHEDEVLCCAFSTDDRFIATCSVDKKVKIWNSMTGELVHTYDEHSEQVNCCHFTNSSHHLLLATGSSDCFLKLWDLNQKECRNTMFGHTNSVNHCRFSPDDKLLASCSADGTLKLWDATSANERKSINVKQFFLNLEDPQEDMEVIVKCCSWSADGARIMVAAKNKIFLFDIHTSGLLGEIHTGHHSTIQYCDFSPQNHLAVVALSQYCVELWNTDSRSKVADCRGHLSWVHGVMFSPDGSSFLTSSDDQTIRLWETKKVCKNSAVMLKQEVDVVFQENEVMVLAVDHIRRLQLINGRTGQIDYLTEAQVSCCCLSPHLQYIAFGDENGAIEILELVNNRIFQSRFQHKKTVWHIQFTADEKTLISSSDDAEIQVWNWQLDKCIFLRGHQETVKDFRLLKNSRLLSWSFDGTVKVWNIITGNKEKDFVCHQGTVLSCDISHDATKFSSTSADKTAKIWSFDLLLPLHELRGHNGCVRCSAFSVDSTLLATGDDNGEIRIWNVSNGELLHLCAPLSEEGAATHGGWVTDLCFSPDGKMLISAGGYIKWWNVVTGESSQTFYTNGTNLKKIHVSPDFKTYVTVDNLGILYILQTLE
# [20] = biological target: Ras and Rab interactor 1/Tyrosine-protein kinase ABL1 (Homo sapiens, UniProt P00519+Q13671); type: functional;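 also: biochemical TR-FRET dose-response test measuring inhibition of binding between Rin1 and Abl proteins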
# Chain of Ras and Rab interactor 1/Tyrosine-protein kinase ABL1 (P00519 whole entry): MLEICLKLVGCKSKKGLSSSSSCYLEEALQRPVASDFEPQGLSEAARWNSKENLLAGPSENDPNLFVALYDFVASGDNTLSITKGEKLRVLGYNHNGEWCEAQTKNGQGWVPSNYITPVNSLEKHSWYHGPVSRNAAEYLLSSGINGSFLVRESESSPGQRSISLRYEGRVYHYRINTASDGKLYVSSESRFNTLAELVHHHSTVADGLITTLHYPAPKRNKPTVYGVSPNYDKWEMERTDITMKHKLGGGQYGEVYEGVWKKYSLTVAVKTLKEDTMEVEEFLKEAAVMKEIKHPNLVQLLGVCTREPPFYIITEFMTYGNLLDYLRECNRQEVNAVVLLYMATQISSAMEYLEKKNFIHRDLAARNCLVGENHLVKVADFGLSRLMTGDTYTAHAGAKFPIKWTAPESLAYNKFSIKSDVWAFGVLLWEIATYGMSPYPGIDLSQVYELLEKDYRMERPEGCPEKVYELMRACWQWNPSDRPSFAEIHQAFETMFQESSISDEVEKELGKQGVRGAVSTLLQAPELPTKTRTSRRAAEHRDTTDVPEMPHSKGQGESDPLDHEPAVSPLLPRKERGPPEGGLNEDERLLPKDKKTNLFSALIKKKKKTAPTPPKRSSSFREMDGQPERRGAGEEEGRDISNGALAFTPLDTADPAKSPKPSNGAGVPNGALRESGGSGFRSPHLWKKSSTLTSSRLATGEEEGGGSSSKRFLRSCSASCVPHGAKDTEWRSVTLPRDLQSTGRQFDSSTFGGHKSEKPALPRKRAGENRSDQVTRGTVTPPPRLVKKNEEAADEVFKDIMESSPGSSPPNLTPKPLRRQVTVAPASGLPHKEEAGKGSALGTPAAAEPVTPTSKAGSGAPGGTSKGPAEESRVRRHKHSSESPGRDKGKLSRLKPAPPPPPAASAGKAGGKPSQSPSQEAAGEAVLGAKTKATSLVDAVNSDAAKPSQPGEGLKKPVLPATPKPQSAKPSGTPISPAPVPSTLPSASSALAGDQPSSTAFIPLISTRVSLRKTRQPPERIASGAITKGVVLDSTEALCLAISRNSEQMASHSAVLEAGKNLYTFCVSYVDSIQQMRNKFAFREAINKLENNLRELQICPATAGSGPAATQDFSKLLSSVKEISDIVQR
# Chain of Ras and Rab interactor 1/Tyrosine-protein kinase ABL1 (Q13671 whole entry): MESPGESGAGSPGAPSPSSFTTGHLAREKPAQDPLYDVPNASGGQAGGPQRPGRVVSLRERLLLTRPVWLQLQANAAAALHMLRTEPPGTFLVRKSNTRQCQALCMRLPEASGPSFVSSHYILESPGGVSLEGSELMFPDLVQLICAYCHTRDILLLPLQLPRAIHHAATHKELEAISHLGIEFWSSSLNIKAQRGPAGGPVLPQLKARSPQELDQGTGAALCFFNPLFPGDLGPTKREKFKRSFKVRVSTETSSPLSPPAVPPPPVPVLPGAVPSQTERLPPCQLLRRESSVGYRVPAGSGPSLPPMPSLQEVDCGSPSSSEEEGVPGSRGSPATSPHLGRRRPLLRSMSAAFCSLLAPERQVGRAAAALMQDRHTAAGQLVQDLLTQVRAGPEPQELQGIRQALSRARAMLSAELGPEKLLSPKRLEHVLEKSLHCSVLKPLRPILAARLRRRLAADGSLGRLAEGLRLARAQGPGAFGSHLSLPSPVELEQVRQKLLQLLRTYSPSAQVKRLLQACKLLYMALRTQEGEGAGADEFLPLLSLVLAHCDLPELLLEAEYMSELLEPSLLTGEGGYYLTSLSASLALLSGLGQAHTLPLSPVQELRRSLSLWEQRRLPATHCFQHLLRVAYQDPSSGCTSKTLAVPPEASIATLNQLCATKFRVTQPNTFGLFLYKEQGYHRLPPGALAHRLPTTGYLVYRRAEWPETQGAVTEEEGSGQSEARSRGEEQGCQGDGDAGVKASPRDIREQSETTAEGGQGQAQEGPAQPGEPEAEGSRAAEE
# [21] = biological target: T5, Sentrin-specific protease 8 (Homo sapiens, UniProt Q96LD8); type: functional
# T5 sequence (Q96LD8 whole entry): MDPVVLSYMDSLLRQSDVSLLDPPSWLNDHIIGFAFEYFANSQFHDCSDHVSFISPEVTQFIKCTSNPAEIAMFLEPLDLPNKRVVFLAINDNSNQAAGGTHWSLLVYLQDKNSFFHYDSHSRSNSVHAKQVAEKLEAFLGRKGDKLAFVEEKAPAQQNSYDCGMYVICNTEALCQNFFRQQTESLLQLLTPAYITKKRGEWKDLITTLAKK
# [22] = biological target: T5, Sentrin-specific protease 8; type: functional; remark: listed apart in the source
# [23] = biological target: T6, Histone-lysine N-methyltransferase NSD2 (Homo sapiens, UniProt O96028); type: biochemical
# T6 sequence (O96028 whole entry): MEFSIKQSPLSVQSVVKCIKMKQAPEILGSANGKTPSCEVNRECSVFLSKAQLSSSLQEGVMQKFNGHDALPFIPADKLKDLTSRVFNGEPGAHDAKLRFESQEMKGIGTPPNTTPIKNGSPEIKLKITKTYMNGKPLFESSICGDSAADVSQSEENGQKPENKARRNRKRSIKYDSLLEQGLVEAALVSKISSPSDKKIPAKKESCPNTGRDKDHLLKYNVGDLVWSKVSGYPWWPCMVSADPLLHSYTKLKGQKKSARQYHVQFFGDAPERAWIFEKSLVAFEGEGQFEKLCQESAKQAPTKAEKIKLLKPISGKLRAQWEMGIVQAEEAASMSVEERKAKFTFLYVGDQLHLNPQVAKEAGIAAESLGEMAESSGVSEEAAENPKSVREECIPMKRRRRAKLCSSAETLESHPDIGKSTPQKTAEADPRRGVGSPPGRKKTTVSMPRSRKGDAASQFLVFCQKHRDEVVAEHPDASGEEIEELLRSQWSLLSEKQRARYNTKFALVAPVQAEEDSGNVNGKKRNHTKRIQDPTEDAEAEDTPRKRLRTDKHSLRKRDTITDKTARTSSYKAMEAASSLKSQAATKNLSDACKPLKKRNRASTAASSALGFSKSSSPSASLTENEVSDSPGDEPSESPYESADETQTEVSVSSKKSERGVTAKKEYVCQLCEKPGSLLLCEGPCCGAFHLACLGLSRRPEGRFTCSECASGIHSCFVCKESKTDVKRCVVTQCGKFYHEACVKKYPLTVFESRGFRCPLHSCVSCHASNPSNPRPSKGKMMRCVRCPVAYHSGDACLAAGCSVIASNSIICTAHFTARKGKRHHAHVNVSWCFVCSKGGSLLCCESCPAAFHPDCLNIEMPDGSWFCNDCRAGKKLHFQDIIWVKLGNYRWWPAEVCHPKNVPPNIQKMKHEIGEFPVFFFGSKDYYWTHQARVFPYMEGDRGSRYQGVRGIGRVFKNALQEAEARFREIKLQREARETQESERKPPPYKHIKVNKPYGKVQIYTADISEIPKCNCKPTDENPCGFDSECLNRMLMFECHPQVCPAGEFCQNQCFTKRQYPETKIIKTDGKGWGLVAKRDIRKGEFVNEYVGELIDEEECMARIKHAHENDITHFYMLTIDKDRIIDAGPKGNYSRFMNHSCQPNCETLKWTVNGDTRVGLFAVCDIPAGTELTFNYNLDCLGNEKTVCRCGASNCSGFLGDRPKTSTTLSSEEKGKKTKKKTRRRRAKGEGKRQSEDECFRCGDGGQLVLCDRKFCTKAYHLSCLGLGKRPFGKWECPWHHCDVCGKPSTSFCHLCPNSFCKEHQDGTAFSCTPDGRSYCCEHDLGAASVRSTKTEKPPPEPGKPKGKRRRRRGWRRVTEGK
# [24] = biological target: Tyrosyl-DNA phosphodiesterase 2 (Homo sapiens, UniProt O95551); test: potency against TDP2 phosphodiesterase activity – biochemical, epi absorbance, IC50, dose response (AID 743297)
# Chain of Tyrosyl-DNA phosphodiesterase 2 (O95551 whole entry): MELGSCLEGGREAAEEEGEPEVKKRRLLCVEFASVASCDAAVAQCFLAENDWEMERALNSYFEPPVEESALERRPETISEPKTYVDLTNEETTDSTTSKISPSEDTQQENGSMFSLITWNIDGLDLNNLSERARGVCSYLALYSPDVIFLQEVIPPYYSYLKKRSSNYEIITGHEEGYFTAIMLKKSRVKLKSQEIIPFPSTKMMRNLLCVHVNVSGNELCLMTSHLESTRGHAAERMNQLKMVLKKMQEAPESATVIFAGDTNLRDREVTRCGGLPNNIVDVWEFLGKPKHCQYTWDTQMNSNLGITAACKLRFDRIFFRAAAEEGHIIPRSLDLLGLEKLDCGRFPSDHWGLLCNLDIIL
# [25] = biological target: NADPH oxidase 1 (Homo sapiens, UniProt Q9Y5S8); type: functional, cell-based;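 also: Cell-based assay with luminescence read-out, IC50 derived from inhibitor dose-response curves; intracellular ROS from endogenous NOX1 in intact HT29 colon cancer cells; potency of inhibitors that lower the ROS luminescence signal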
# Chain of Mothers against decapentaplegic homolog 3 (P84022 whole entry): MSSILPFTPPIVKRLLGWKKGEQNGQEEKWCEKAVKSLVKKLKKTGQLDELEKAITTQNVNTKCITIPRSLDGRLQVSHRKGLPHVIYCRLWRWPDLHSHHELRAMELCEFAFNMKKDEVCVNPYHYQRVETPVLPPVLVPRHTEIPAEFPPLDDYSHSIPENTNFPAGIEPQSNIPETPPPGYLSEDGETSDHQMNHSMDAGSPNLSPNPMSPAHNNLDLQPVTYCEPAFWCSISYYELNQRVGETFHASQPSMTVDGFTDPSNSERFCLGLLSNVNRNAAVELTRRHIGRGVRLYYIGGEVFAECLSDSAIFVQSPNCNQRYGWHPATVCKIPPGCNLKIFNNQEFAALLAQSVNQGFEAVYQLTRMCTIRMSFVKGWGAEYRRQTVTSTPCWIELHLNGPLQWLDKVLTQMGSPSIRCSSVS
compound,measurement,setting,value
Cc1ccc(CCN2CC(C(=O)NCCCN3CCCCCC3)CC2=O)cc1 (stereo not given),IC50,[1],11.1 µM (active)
COc1ccc(/C=C/C(=O)Oc2cccc(/C=N/NC(=O)COc3c(C)cccc3C)c2)cc1,IC50,[2],6.28 µM (active)
same,IC50,[3],> 111 µM (not active)
same,AC50,[4],3.55 µM (inconclusive)
same,AC50,[5],inconclusive
CC(=O)Nc1ccc(OCC(=O)c2cc(C)n(Cc3ccccc3)c2C)cc1,EC50,[6],> 30 µM (not active)
CCCN1CC=C2C(C#N)=C(N)C(C#N)(C#N)C(c3cccc(OC)c3OC)C2C1 (stereo not given),IC50,[7],> 100 µM (not active)
same,IC50,[8],> 100 µM (not active)
O=c1c2ccccc2ncn1/N=C/c1ccccc1,EC50,[9],2.06 µM (active)
same,EC50,[10],< 0.1 µM (active)
same,EC50,[11],< 0.1 µM (active)
same,EC50,[12],0.525 µM (active)
same,EC50,[13],1.16 µM (active)
same,EC50,[14],0.53 µM (active)
CC(=O)C1=C(C)OC2(O)c3ccccc3C(=O)C12O (stereo not given),IC50,[15],> 67 µM (not active)
same,IC50,[16],3.09 µM (active)
same,IC50,[17],16.6 µM (active)
same,IC50,[18],> 2.48 µM (active)
same,IC50,[19],8.19 µM (active)
same,IC50,[20],> 73.4 µM (inactive)
same,IC50,[21],0.455 µM (active)
same,IC50,[22],0.754 µM (active)
same,AC50,[23],4.82 µM (active)
same,IC50,[24],7.52 µM (active)
O=C(Cc1ccc([N+](=O)[O-])cc1)Nc1ccc(Oc2ccccc2)cc1,IC50,[25],> 17 µM (not active)
